Measurements as given in patent US6566368B2, “Apomorphine-containing dosage form for ameliorating male erectile dysfunction” (Pentech Pharmaceuticals, Inc., priority 1994, dated 2003).
Where “and” joins values, the source holds several entries; their conditions need not be identical. Identical values can stand only once. Like-named read-outs stand apart in the source and are kept apart here.

Key:
[1] = tested on: men with psychogenic male erectile dysfunction (MED); test: Pilot Study #6: safety and tolerance of escalating APO doses (adverse events, serum chemistry, vital signs)
Procedure: A clinical study of patient tolerance of escalating doses in sublingual tablet administration of APO for the treatment of psychogenic male erectile dysfunction was performed.
In the second phase, subjects returned to the clinic for four visits, each visit one week apart. Subjects received one sublingual administration of either placebo, or 4, 6 and 8 mg APO at each visit. Doses of APO were administered in ascending order with the placebo being randomly assigned for use at one of the four visits. The procedures performed before and after drug administration were the same as those in the first phase.
Fifty males with psychogenic MED were enrolled in this three phase trial. The first aim of this study was to determine the safety and tolerance of APO in the treatment of MED.

[2] = tested on: patients with psychogenic impotence
[3] = tested on: patients with psychogenic impotence; test: Pilot Study #3: aqueous intranasal spray (1.25 mg per puff), […] erectile response, adverse effects; type: in vivo, human
Text: The first patient was an anxious person who had been experiencing erectile dysfunction for two years.

[4] = cited from earlier work
[5] = in vivo; for Vd (SS) / Vd (beta): male, human
[6] = clinical; conditions: male, human, in vivo; for clearance: Cl
[7] = tested on: patients with psychogenic impotence; conditions: for Mean (SE) erectile function / Percent (SE) successful erectile function (score at least 16): N 12
[8] = tested on: patients with psychogenic impotence; remark: listed apart in the source
[9] = tested on: men with psychogenic male erectile dysfunction (MED); test: Pilot Study #6, third phase: home use, reported success of intercourse (Sexual Function questionnaire); type: in vivo, human; conditions: for Reported Success by Tablet Strength: home use; for Reported Success, Overall: all doses, 20/29
Text: The third phase, a home-use phase, lasted 5 weeks. During this phase, subjects attempted coitus at least once each week after taking a single APO tablet. After each attempt the subject and their partner completed a Sexual Function questionnaire (Table XVII).
During the third phase, subjects had recorded at baseline, their satisfaction, erection, number of attempts, and successful intercourse on a VAS scale. Evaluable subjects first recorded a success rate, then completed VAS for erection results and satisfaction with intercourse following take-home treatment. Success rate was calculated for mg as well as μg/kg body weight doses (males). Several evaluations of the data were made including the male and female responses to treatments. The overall average success rate is 69% with APO treatment which is much higher than the average baseline rate 28% (Tables XXI, XXII).

[10] = tested on: men with psychogenic male erectile dysfunction (MED); test: as above; type: in vivo, human; conditions: 4 or 6 mg APO sublingual tablets
[11] = sublingual tablets 2.5 mg and 5 mg, seven evaluable patients
[12] = intranasal 2.5 mg, Patient No. 2
[13] = Durif, F. et al., s.l., 7 × 3 mg tablets, 0.3 mg/kg, 7 subjects
[14] = Durif, F. et al., s.l., 14 × 3 mg tablets, 0.6 mg/kg, 7 subjects
[15] = Gancher, S. T., et al., s.c., 0.02 mg/kg, 5 subjects
[16] = Gancher, S. T., et al., s.l., 3 × 6 mg tablets, 0.25 mg/kg, 5 subjects
[17] = Montastruc, J. L., et al., s.c., 0.04 mg/kg, 9 subjects
[18] = Montastruc, J. L., et al., s.l., 10 × 3 mg tablets, 0.42 mg/kg, 9 subjects
[19] = sublingual tablets 3, 4, 5 mg (Table I), twelve patients
[20] = liquid apomorphine sublingual, 10 mg and 20 mg, ten evaluable patients
[21] = liquid sublingual 10 mg and 20 mg

SMILES: CN1CCc2cccc3c2[C@H]1Cc1ccc(O)c(O)c1-3 [apomorphine]
- cardiovascular and other adverse events ([1]; 4, 6, 8 mg sublingual, with bradycardia, dizziness, syncope, pallor): Hypotension was reported as an adverse event in some subjects
- incidence of vomiting ([1]; all administered doses): less than 3%
- nausea cases considered severe ([1]; all administered doses): two
- overall incidence of nausea ([1]; all administered doses (4, 6, 8 mg sublingual)): less than 13 % of the subjects
- changes in serum chemistry values and vital signs ([1]; except one subject with abnormal liver function of unknown origin): no clinically significant changes
- yawns per session ([2]; 2.5 mg dose, patients who failed testing): one or two
- yawning responses per session ([2]; 5 mg dose): three to five
- adverse effects ([2]; sublingual tablet 2.5 mg, the two successful patients): did not produce adverse effects
- adverse effects (nausea, diaphoresis, dizziness, blurred vision, facial flushing, drop in heart rate and blood pressure) ([2]; sublingual tablet 5 mg): produced adverse effects
- failures during lab testing [2, 11]: 71%
- successes (score of no less than 16) during lab testing [2, 11]: 28% and 29%
- erectile response ([2]; sublingual tablets 2.5 and 5 mg): produced erectile responses in some patients
- time for sublingual tablets to dissolve ([2]; sublingual tablets 2.5 and 5 mg, under the tongue): five
- yawns ([2]; the two successful patients, 2.5 mg and 5 mg doses): three to five
- adverse effects [3, 12]: major hemodynamic adverse effects
- blood pressure (hypotension) [3, 12]: 70/50
- total yawns ([3]; intranasal 2.5 mg, Patient No. 2, ten minutes post-dosing): five
- erectile response ([3]; intranasal administration): effective in eliciting an erection
- score on both erotic and neutral video segments ([3]; intranasal spray 2.5 mg, 3.75 mg, first patient, categorized as a failure): less than sixteen
- time to adverse effects (nausea and vomiting, dizziness, blurred vision, diaphoresis) ([3]; intranasal spray, first patient, after inadvertently increased dose): five
- Cmax ([4]; Durif, F. et al., Clin. Neuropharm. 16:157-166, s.l., 7 × 3 mg tablets, 0.3 mg/kg, 7 subjects): 7.5 ng/mL
- AUC [4, 13]: 929 ng·min/mL
- Cl [4, 13]: 35 mL/min/kg
- MRT [4, 13]: 128 min
- Tmax [4, 13]: 31.5 min
- Vd [4, 13]: 3.4 L/kg
- AUC [4, 14]: 2,277 min*ng/ml
- Cl [4, 14]: 30 mL/min/kg
- Cmax [4, 14]: 22.7 ng/mL
- MRT [4, 14]: 125 min
- Tmax [4, 14]: 38.3 min
- Vd [4, 14]: 2.8 L/kg
- Cmax ([4]; Gancher, S. T., et al., Movement Disorders 6:212-216 (1991), s.l., 3 × 6 mg tablets, 0.25 mg/kg, 5 subjects): 14.3 ng/mL
- Vd ([4]; Gancher, S. T., et al., i.v., […], 5 subjects, *Calculated): 0.043* l/kg
- Tmax ([4]; Gancher, S. T., et al., i.v., […], 5 subjects): 6.7 min
- AUC [4, 15]: 592.7 ng·min/mL
- Cmax [4, 15]: 19.36 ng/mL
- Tmax [4, 15]: 6.5 min
- AUC [4, 16]: 1,057 min*ng/ml
- Tmax [4, 16]: 45 min
- Cmax ([4]; Montastruc, J. L., et al., Clin. Neuropharmacol. 14:432-437 (1991), s.l., 10 × 3 mg tablets, 0.42 mg/kg, 9 subjects): 28 ng/mL
- AUC [4, 17]: 837 ng·min/mL
- Cmax [4, 17]: 26 ng/mL
- Tmax [4, 17]: 18 min
- AUC [4, 18]: 1,882 min*ng/ml
- Tmax [4, 18]: 41 min
- plasma concentration compared with previous reports (Table XVI) [5]: produced a lower plasma concentration
- Vd (SS) ([5]; 4 mg): 1.836 mL
- Vd (beta) ([5]; 4 mg): 4.076 mL
- Vd (SS) ([5]; 8 mg): 46.30 mL
- Vd (beta) ([5]; 8 mg): 69.09 mL
- Vd ([6]; 0.06 mg/kg): 2.33 L/kg
- clearance ([6]; iv, 0.01 mg/kg): 72.8 mL/min/kg
- Vd ([6]; iv, 0.01 mg/kg): 3.35 L/kg
- AUC(0-inf) ([6]; iv, 1 mg, AUC (0-inf)): 3.45 ng·h/mL
- clearance ([6]; iv, 1 mg): 5100 mL/min
- Cmax ([6]; iv, Cmax): 8.36 ng/mL
- active treatment compared with placebo, mean erectile function ([7]; 3 mg and 4 mg, regardless of stimulus background): more effective than placebo
- Mean (SE) erectile function ([7]; Erotic stimulus, 3 mg): 18.75 (2.51)
- Percent (SE) successful erectile function (score at least 16) ([7]; Erotic stimulus, 3 mg): 66.67 (13.61) Percent
- Mean (SE) erectile function ([7]; Erotic stimulus, 4 mg): 19.83 (2.67)
- Percent (SE) successful erectile function (score at least 16) ([7]; Erotic stimulus, 4 mg): 66.67 (13.61) Percent
- Mean (SE) erectile function ([7]; Neutral stimulus, 3 mg): 11.83 (2.68)
- Percent (SE) successful erectile function (score at least 16) ([7]; Neutral stimulus, 3 mg): 50.00 (14.43) Percent
- Mean (SE) erectile function ([7]; Neutral stimulus, 4 mg): 13.50 (2.61)
- Percent (SE) successful erectile function (score at least 16) ([7]; Neutral stimulus, 4 mg): 50.00 (14.43) Percent
- number of yawns ([7]; all doses 3, 4, 5 mg): one or two
- domestic use, patient reports ([7]; eight successful patients, one to four months): good erectile activity and no side effects
- patients successfully treated among those who had failed a trial of yohimbine HCl ([7]; of group of seven): four
- failures with apomorphine [7, 19]: 33%
- patients successful with apomorphine [7, 19]: 67%
- failures with apomorphine [8, 20]: 30%
- successes (score of no less than 16 on both neutral and erotic video segments) [8, 20]: 70%
- adverse effects [8, 21]: Adverse effects were reported at both dose levels
- erectile response [8, 21]: produce erectile responses
- longest duration of side effects [8, 21]: 30 to 40 min
- onset of adverse effects [8, 21]: ten to fifteen
- yawns per session ([8]; liquid sublingual 10 mg and 20 mg, each patient): two to five
- erectile response ([8]; liquid sublingual 10 mg and 20 mg, listed as Apomorphine): effective in inducing erectile episodes without increasing libido
- patients successful with apomorphine among those who had failed a trial of yohimbine HCl ([8]; of group of eight, liquid sublingual 10 mg and 20 mg): 6
- patients developing nausea, diaphoresis, dizziness, blurred vision, decrease in blood pressure and heart rate ([8]; of ten evaluable, liquid sublingual 10 mg and 20 mg): eight
- Reported Success by Tablet Strength ([9]; Female group, 4 mg): 5/7 (71.4%)
- Reported Success by Tablet Strength ([9]; Female group, 8 mg): 4/7 (57.1%)
- Reported Success by Apomorphine Dosage ([9]; Female group, 35-50 μg/kg): 3/5 (60.0%)
- Reported Success by Apomorphine Dosage ([9]; Female group, 50-74 μg/kg): 9/11 (81.8%)
- Reported Success by Apomorphine Dosage ([9]; Female group, 50-74 μg/kg, listed as APO): 82%
- Reported Success by Apomorphine Dosage ([9]; Female group, >74 μg/kg): 8/13 (61.5%)
- Reported Success, Overall ([9]; Female group): (69.0%)
- Reported Success by Tablet Strength ([9]; Male group, 4 mg): 5/7 (71.4%)
- Reported Success by Tablet Strength ([9]; Male group, 8 mg): 4/7 (57.1%)
- Reported Success by Apomorphine Dosage ([9]; Male group, 35-50 μg/kg): 4/5 (80.0%)
- Reported Success by Apomorphine Dosage ([9]; Male group, 50-74 μg/kg): 8/11 (72.7%)
- Reported Success by Apomorphine Dosage ([9]; Male group, 50-74 μg/kg, listed as APO): 80%
- Reported Success by Apomorphine Dosage ([9]; Male group, >74 μg/kg): 8/13 (61.5%)
- Reported Success, Overall ([9]; Male group): (69.0%)
- overall average success rate ([9]; take-home APO treatment, average baseline rate 28%): 69%
- men with MED in whom erections were caused [10]: 72%
